From US6670367B1, “Azinyloxy, and phenoxy-diaryl-carboxylic acid derivatives, their preparation and use as mixed ETA/ETB endothelin receptor antagonists” (Abbott GmbH & Co., KG, priority 1996, dated 2003)

Key:
human ETA receptor = biological target: T1, human ETA receptor (Homo sapiens, UniProt P25101); experiment: ETA receptor binding assay (125I-ET1, membranes of receptor-expressing CHO cells); conditions: cloned human ETA receptor, CHO cell membranes, 25 pM 125I-ET1, 25° C., 30 min
T1 construct: expressed in transfected cells; host or cells: CHO cells (membrane preparation)
T1 sequence (P25101 21-427): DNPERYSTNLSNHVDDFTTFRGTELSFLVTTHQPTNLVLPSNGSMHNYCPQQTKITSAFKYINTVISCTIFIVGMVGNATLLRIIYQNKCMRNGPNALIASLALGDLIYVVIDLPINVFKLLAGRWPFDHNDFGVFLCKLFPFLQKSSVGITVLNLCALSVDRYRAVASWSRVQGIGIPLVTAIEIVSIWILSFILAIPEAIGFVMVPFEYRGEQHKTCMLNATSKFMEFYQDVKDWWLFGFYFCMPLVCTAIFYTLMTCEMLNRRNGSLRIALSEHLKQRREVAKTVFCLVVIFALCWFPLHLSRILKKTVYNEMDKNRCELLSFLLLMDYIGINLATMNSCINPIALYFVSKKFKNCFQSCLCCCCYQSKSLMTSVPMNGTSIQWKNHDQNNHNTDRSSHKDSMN
Method: (§1) Cloned human ETA or ETB receptor-expressing CHO cells were employed for binding studies.
(§2) The ETA or ETB receptor-expressing CHO cells were grown in DMEM NUT MIX F12 medium (Gibco, No. 21331-020) with 10% fetal calf serum (PAA Laboratories GmbH, Linz, No. A15-022), 1 mM glutamine (Gibco No. 25030-024), 100 U/ml penicillin and 100 μg/ml streptomycin (Gibco, Sigma No. P-0781). After 48 hours, the cells were washed with PBS and incubated with 0.05% trypsin-containing PBS at 37° C. for 5 minutes. Neutralization with medium was then carried out, and the cells were collected by centrifugation at 300×g.
(§3) For the membrane preparation, the cells were adjusted to a concentration of 10^8 cells/ml of buffer (50 mM tris.HCL buffer, pH 7.4) and then disintegrated by ultrasound (Branson Sonifier 250, 40-70 seconds/constant/output 20).
(§4) For the ETA and ETB receptor binding assays, the membranes were suspended in incubation buffer (50 mM tris-HCl, pH 7,4 with 5 mM MnCl2, 40 μg/ml bacitracin and 0.2% BSA) at a concentration of 50 μg of protein per assay mixture, and incubated with 25 pM ^125I-ET1 (ETA receptor assay) or 25 pM ^125I-ET3 (ETB receptor assay) in the presence and absence of test substance at 25° C. The nonspecific binding was determined with 10^−7 M ET1. Filtration was carried out after 30 min through GF/B glassfiber filters (Whatman, England) in a Skatron cell collector (Skatron, Lier, Norway) to separate free and bound radio ligands, and the filters were washed with ice-cold tris-HCl buffer, pH 7.4 with 0.2% BSA. The radioactivity collected on the filters was quantified using a
(§5) Packard 2200 CA liquid scintillation counter.

human ETB receptor = biological target: T2, human ETB receptor (Homo sapiens, UniProt P24530); experiment: ETB receptor binding assay (125I-ET3, membranes of receptor-expressing CHO cells); conditions: cloned human ETB receptor, CHO cell membranes, 25 pM 125I-ET3, 25° C., 30 min
T2 construct: expressed in transfected cells; host or cells: CHO cells (membrane preparation)
T2 sequence (P24530 27-442): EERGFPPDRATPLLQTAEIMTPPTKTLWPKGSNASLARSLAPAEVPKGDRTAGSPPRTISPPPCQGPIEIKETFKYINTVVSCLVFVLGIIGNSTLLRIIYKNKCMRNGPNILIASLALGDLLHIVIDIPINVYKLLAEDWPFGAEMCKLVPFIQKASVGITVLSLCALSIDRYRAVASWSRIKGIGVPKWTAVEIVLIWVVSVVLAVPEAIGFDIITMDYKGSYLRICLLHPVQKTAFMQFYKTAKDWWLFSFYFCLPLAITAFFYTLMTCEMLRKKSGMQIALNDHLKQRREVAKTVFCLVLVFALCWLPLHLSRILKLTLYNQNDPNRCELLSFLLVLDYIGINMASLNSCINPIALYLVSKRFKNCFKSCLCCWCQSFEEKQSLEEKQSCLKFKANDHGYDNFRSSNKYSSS
Method: as §1, §2, §3, §4, §5

| Ki (human ETA receptor) [nM] | Ki (human ETB receptor) [nM] | melting point | SMILES |
| --- | --- | --- | --- |
| 35 | 35 | – | CCc1ccc(C(OCCc2ccc(OC)c(OC)c2)(c2ccc(CC)cc2)C(Oc2nc(C)cc(OC)n2)C(=O)O)cc1 (stereo not drawn) [Compound I-116, 2-(4-Methoxy-6-methyl-2-pyrimidinyloxy)-3-(2-(3,4-dimethoxyphenyl)ethoxy)-3,3-di(4-ethylphenyl)propionic Acid] |
| 575 | 460 | – | COc1ccccc1CCOC(c1ccccc1)(c1ccccc1)C(Oc1nc(OC)c2c(n1)OCC2)C(=O)O (stereo not drawn) [Compound I-140] |
| 4 | 29 | – | CCOc1ccc(CCOC(c2ccccc2)(c2ccccc2)C(Oc2nc(C)cc(C)n2)C(=O)O)cc1OC (stereo not drawn) [Compound I-146, 2-(4,6-Dimethyl-2-pyrimidinyloxy)-3-(2-(4-ethoxy-3-methoxyphenyl)ethoxy)-3,3-diphenylpropionic Acid] |
| 340 | 290 | – | COc1cc(CCOC(c2ccccc2)(c2ccccc2)C(Oc2nc3c(c(OC)n2)CCC3)C(=O)O)cc(OC)c1 (stereo not drawn) [Compound I-321] |
| 132 | 82 | – | COc1ccc(CCOC(c2ccc(C)cc2)(c2ccc(C)cc2)C(Oc2nc(OC)c3c(n2)OCC3)C(=O)O)cc1 (stereo not drawn) [Compound I-355] |
| 11 | 54 | 128 to 130 °C | COc1nc(OC(C(=O)O)C(OCCc2ccc(C)cc2)(c2ccccc2)c2ccccc2)nc2c1CCO2 (stereo not drawn) [Compound I-370, 2-(4-Methoxy-5,6-dihydrofuro(2,3d)-2-pyrimidinyloxy)-3-(2-(4-methylphenyl)ethoxy)-3,3-diphenylpropionic Acid] |
| 3.5 | 7.2 | 125 to 130 °C (dec.) | COc1ccc(CCOC(c2ccccc2)(c2ccccc2)C(Oc2nc(C)cc(C)n2)C(=O)O)cc1OC (stereo not drawn) [Compound I-445] |
| 2 | 14 | – | COc1cc(C)nc(OC(C(=O)O)C(OCCc2ccc(OC)c(OC)c2)(c2ccccc2)c2ccccc2)n1 (stereo not drawn) [Compound I-482, 2-(4-Methoxy-6-methyl-2-pyrimidinyloxy)-3-(2-(3,4-dimethoxyphenyl)ethoxy)-3,3-diphenylpropionic Acid] |
| 31 | 135 | – | COc1cc(C)nc(OC(C(=O)O)C(OCCCc2ccccc2)(c2ccccc2)c2ccccc2)n1 (stereo not drawn) [Compound I-499, 2-(4-Methoxy-6-methyl-2-pyrimidinyloxy)-3-(3-phenylpropoxy)-3,3-diphenylpropionic Acid] |
| 6 | 23 | – | COc1ccc(CCOC(c2ccccc2)(c2ccccc2)C(Oc2nc(C)cc(C)n2)C(=O)O)cc1 (stereo not drawn) [Compound I-585, 2-(4,6-Dimethyl-2-pyrimidinyloxy)-3-(2-(4-methoxyphenyl)ethoxy)-3,3-diphenylpropionic Acid] |
| 300 | 160 | 90 to 100 °C | COc1cc(CCOC(c2ccc(Cl)cc2)(c2ccc(Cl)cc2)C(Oc2nc(OC)c3c(n2)OCC3)C(=O)O)cc(OC)c1 (stereo not drawn) [Compound I-593, 2-(4-Methoxy-5,6-dihydrofuro(2,3d)-2-pyrimidinyloxy)-3-(2-(3,5-dimethoxyphenyl)ethoxy)-3,3-di(4-chlorophenyl)propionic Acid] |
| 3 | 23 | – | COc1ccc(CCOC(c2ccccc2)(c2ccccc2)C(Oc2nc(C)cc(OC)n2)C(=O)O)cc1 (stereo not drawn) [Compound I-622, 2-(4-Methoxy-6-methyl-2-pyrimidinyloxy)-3-(2-(4-methoxyphenyl)ethoxy)-3,3-diphenylpropionic Acid] |
| 210 | 126 | 100 to 110 °C | COc1ccc(CCOC(c2ccc(Cl)cc2)(c2ccc(Cl)cc2)C(Oc2nc(OC)c3c(n2)OCC3)C(=O)O)cc1OC (stereo not drawn) [Compound I-635, 2-(4-Methoxy-5,6-dihydrofuro(2,3d)-2-pyrimidinyloxy)-3-(2-(3,4-dimethoxyphenyl)ethoxy)-3,3-di(4-chlorophenyl)propionic Acid] |
| 60 | 185 | – | Cc1cc(C)nc(OC(C(=O)O)C(OCCc2ccc(C(C)C)cc2)(c2ccccc2)c2ccccc2)n1 (stereo not drawn) [Compound I-672, 2-(4,6-Dimethyl-2-pyrimidinyloxy)-3-(2-(4-i-propylphenyl)ethoxy)-3,3-diphenylpropionic Acid] |
| 230 | 130 | 100 to 110 °C | COc1cc(C)nc(OC(C(=O)O)C(OCCc2ccc(OC)c(OC)c2)(c2ccc(Cl)cc2)c2ccc(Cl)cc2)n1 (stereo not drawn) [Compound I-699, 2-(4-Methoxy-6-methyl-2-pyrimidinyloxy)-3-(2-(3,4-dimethoxyphenyl)ethoxy)-3,3-di(4-chlorophenyl)propionic Acid] |
| 20 | 96 | 108 °C (dec.) | Cc1cc(C)nc(OC(C(=O)O)C(OCCc2ccc(Cl)cc2)(c2ccccc2)c2ccccc2)n1 (stereo not drawn) [Compound I-713, 2-(4,6-Dimethyl-2-pyrimidinyloxy)-3-(2-(4-chlorophenyl)ethoxy)-3,3-diphenylpropionic Acid] |
| – | – | 155 °C (dec.) | COc1cc(C)nc(OC(C(=O)O)C(OCCc2ccccc2)(c2ccccc2)c2ccccc2)n1 (stereo not drawn) [Compound I-719, 2-(4-Methoxy-6-methyl-2-pyrimidinyloxy)-3-(2-phenylethoxy)-3,3-diphenylpropionic Acid] |
| – | – | 130 to 133 °C | Cc1cc(C)nc(OC(C(=O)O)C(OCCc2ccccc2)(c2ccccc2)c2ccccc2)n1 (stereo not drawn) [Compound I-720, 2-(4,6-Dimethyl-2-pyrimidinyloxy)-3-(2-phenylethoxy)-3,3-diphenyl propionic Acid] |
| – | – | 93 to 98 °C | COc1cc(C)nc(OC(C(=O)O)C(OCCc2ccc(Cl)cc2)(c2ccccc2)c2ccccc2)n1 (stereo not drawn) [Compound I-746, 2-(4-Methoxy-6-methyl-2-pyrimidinyloxy)-3-(2-(4-chlorophenyl)ethoxy)-3,3-diphenylpropionic Acid] |
| 65 | 140 | – | COc1ccc(CCOC(c2ccccc2)(c2ccccc2)[C@@H](Oc2nc(C)cc(C)n2)C(=O)O)cc1OC [I-445 (R) enantiomer] |
| 1.3 | 4.1 | – | COc1ccc(CCOC(c2ccccc2)(c2ccccc2)[C@H](Oc2nc(C)cc(C)n2)C(=O)O)cc1OC [I-445 (S) enantiomer, (S)-2-(4,6-Dimethylpyrimidin-2-yloxy)-3-(2-(3,4-dimethoxyphenyl)ethoxy)-3,3-diphenylpropionic Acid] |
